From patent publication US11634417B2 (Array BioPharma Inc., priority 2019, dated 2023)

Tests used:
[1] = tested on: ERK1/2 (Thr202/Tyr204) phosphorylation in KYSE520 cells; assay: Cellular Phospho-p44/42 MAPK (Erk1/2) (Thr202/Tyr204) assay, In-Cell Western; format: cell-based; conditions: Homo sapiens, KYSE-520; KYSE520 cells, 1 hour incubation, pERK signal normalized to GAPDH; single assay or mean of multiple assays; read-out: Biological Example 2 IC50
Method in brief: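 KYSE520 cells were treated 1 h with a 10-point 1:3 series (20 μM-1 nM, 0.5% DMSO), then fixed and stained for pERK1/2 (Thr202/Tyr204) and GAPDH by In-Cell Western. pERK signal was normalized to GAPDH per well; IC50 from 4-parameter fit.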

[2] = target: T1, full-length SHP2 (Homo sapiens, UniProt Q06124); assay: SHP2 enzymatic assay (fluorescence intensity kinetic assay, DiFMUP hydrolysis); format: biochemical; conditions: 1 nM His6-tagged SHP2(2-527), 1 μM activating peptide, 50 μM DiFMUP; single assay or mean of multiple assays; read-out: Biological Example 1 IC50
T1 construct: 1 nM full-length SHP2 (His6-tagged SHP2(2-527), recombinantly expressed in E. coli and purified in-house); His6; made in house; host or cells: E. coli
T1 sequence (Q06124 2-527): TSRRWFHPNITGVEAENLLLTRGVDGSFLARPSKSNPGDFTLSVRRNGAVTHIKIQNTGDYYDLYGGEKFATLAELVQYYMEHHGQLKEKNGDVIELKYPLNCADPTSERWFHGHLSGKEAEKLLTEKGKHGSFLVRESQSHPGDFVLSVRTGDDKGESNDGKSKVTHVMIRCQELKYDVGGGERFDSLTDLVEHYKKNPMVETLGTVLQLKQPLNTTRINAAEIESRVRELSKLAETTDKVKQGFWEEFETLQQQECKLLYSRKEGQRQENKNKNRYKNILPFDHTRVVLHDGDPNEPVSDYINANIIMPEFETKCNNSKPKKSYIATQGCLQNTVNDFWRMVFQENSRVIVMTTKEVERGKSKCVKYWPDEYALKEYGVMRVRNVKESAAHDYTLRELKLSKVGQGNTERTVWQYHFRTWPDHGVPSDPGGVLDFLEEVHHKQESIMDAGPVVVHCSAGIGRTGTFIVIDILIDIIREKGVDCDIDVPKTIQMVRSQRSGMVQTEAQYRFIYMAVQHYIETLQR

Row | IC50 [2] | SMILES | IC50 [1]
1 | 118 nM | Cc1ccc2c(c1)CC1(CCN(c3ncc(Sc4ccnc(N)c4Cl)nn3)CC1)[C@H]2N [Example 59, (R)-1′-(6-((2-amino-3-chloropyridin-4-yl)thio)-1,2,4-triazin-3-yl)-5-methyl-1,3-dihydrospiro[indene-2,4′-piperidin]-1-amine] | 170 nM
2 | 109 nM | Cc1ccc2c(n1)CC1(CCN(c3ncc(Sc4ccnc(N)c4Cl)nn3)CC1)[C@H]2N [Example 60] | 528 nM
3 | 87 nM | Cc1nc2c(s1)[C@@H](N)C1(CCN(c3ncc(Sc4ccnc(N)c4Cl)nn3)CC1)C2 [Example 61, (S)-1′-(6-((2-amino-3-chloropyridin-4-yl)thio)-1,2,4-triazin-3-yl)-2-methyl-4,6-dihydrospiro[cyclopenta[d]thiazole-5,4′-piperidin]-6-amine] | 6 nM
4 | 39 nM | Cc1ccc2c(n1)CC1(CCN(c3ncc(Sc4ccnc(N)c4Cl)nn3)CC1)[C@@H]2N [Example 62] | 6 nM
5 | 41 nM | Nc1nccc(Sc2cnc(N3CCC4(CC3)Cc3ccc(Cl)cc3[C@H]4N)nn2)c1Cl [Example 64, (S)-1′-(6-((2-amino-3-chloropyridin-4-yl)thio)-1,2,4-triazin-3-yl)-6-chloro-1,3-dihydrospiro[indene-2,4′-piperidin]-1-amine] | 286 nM
6 | 64 nM | Nc1nccc(Sc2cnc(N3CCC4(CC3)Cc3ncc(Cl)cc3[C@H]4N)nn2)c1Cl [Example 65, (S)-1′-(6-((2-amino-3-chloropyridin-4-yl)thio)-1,2,4-triazin-3-yl)-3-chloro-5,7-dihydrospiro[cyclopenta[b]pyridine-6,4′-piperidin]-5-amine] | 81 nM
7 | 205 nM | Nc1nccc(Sc2cnc(N3CCC4(CC3)Cc3c(Cl)cccc3[C@@H]4N)nn2)c1Cl [Example 82, (R)-1′-(6-((2-amino-3-chloropyridin-4-yl)thio)-1,2,4-triazin-3-yl)-4-chloro-1,3-dihydrospiro[indene-2,4′-piperidin]-1-amine] | 541 nM
8 | 24 nM | COc1ccc2c(c1)[C@@H](N)C1(CCN(c3ncc(Sc4ccnc(N)c4Cl)nn3)CC1)C2 [Example 84, (S)-1′-(6-((2-amino-3-chloropyridin-4-yl)thio)-1,2,4-triazin-3-yl)-6-methoxy-1,3-dihydrospiro[indene-2,4′-piperidin]-1-amine] | 2 nM

The next lines start with the molecule.

Row | SMILES | IC50 [2] | IC50 [1]
9 | Nc1nccc(Sc2cnc(N3CCC4(CC3)Cc3ncsc3[C@H]4N)nn2)c1Cl [Example 58, (S)-1′-(6-((2-amino-3-chloropyridin-4-yl)thio)-1,2,4-triazin-3-yl)-4,6-dihydrospiro[cyclopenta[d]thiazole-5,4′-piperidin]-6-amine] | 39 nM | 1 nM
10 | COc1cc2c(cc1Cl)[C@H](N)C1(CCN(c3ncc(Sc4ccnc(N)c4Cl)nn3)CC1)C2 [Example 63, (R)-1′-(6-((2-amino-3-chloropyridin-4-yl)thio)-1,2,4-triazin-3-yl)-6-chloro-5-methoxy-1,3-dihydrospiro[indene-2,4′-piperidin]-1-amine] | 254 nM | 665 nM
11 | N[C@@H]1c2ccccc2CC12CCN(c1ncc(Sc3n[nH]c4ccccc34)nn1)CC2 [Example 67, (S)-1′-(6-((1H-indazol-3-yl)thio)-1,2,4-triazin-3-yl)-1,3-dihydrospiro[indene-2,4′-piperidin]-1-amine] | 20 nM | 51 nM
12 | N[C@@H]1c2ccccc2CC12CCN(c1ncc(Sc3c[nH]c4ccccc34)nn1)CC2 [Example 69, (S)-1′-(6-((1H-indol-3-yl)thio)-1,2,4-triazin-3-yl)-1,3-dihydrospiro[indene-2,4′-piperidin]-1-amine] | 19 nM | 170 nM
13 | N[C@@H]1c2ccccc2CC12CCN(c1ncc(Sc3ccnc4c3CCN4)nn1)CC2 [Example 70, (S)-1′-(6-((2,3-dihydro-1H-pyrrolo[2,3-b]pyridin-4-yl)thio)-1,2,4-triazin-3-yl)-1,3-dihydrospiro[indene-2,4′-piperidin]-1-amine] | 36 nM | 9 nM
14 | N[C@@H]1c2ccccc2CC12CCN(c1ncc(Sc3cnc4ccccn34)nn1)CC2 [Example 71, (S)-1′-(6-(imidazo[1,2-a]pyridin-3-ylthio)-1,2,4-triazin-3-yl)-1,3-dihydrospiro[indene-2,4′-piperidin]-1-amine] | 55 nM | 152 nM
15 | Cn1ccc2c(Sc3cnc(N4CCC5(CC4)Cc4ccccc4[C@H]5N)nn3)ccnc21 [Example 73, (S)-1′-(6-((1-methyl-1H-pyrrolo[2,3-b]pyridin-4-yl)thio)-1,2,4-triazin-3-yl)-1,3-dihydrospiro[indene-2,4′-piperidin]-1-amine] | 32 nM | 6 nM
16 | Nc1nccc(Sc2cnc(N3CCC4(CC3)Cc3nc(Cl)sc3C4N)nn2)c1Cl (stereo not drawn) [Example 76, 1′-(6-((2-amino-3-chloropyridin-4-yl)thio)-1,2,4-triazin-3-yl)-2-chloro-4,6-dihydrospiro[cyclopenta[d]thiazole-5,4′-piperidin]-6-amine] | 41 nM | 4 nM
17 | Nc1nccc(Sc2cnc(N3CCC4(CC3)Oc3ncccc3[C@H]4N)nn2)c1Cl [Example 77] | 74 nM | 92 nM
18 | N[C@@H]1c2ccccc2CC12CCN(c1ncc(-c3ccccc3)nn1)CC2 [Example 79, (S)-1′-(6-phenyl-1,2,4-triazin-3-yl)-1,3-dihydrospiro[indene-2,4′-piperidin]-1-amine] | 84 nM | 697 nM
19 | N[C@@H]1c2ccccc2CC12CCN(c1ncc(-c3cccc(Cl)c3)nn1)CC2 [Example 80, (S)-1′-(6-(3-chlorophenyl)-1,2,4-triazin-3-yl)-1,3-dihydrospiro[indene-2,4′-piperidin]-1-amine] | 429 nM | 2990 nM
20 | N[C@@H]1c2ccccc2CC12CCN(c1ncc(Oc3ccccc3)nn1)CC2 [Example 81, (S)-1′-(6-phenoxy-1,2,4-triazin-3-yl)-1,3-dihydrospiro[indene-2,4′-piperidin]-1-amine] | 4 nM | 8 nM
21 | N[C@@H]1c2ccccc2CC12CCN(c1ncc(Sc3ccnc(NCCO)c3Cl)nn1)CC2 [Example 83, (S)-2-((4-((3-(1-amino-1,3-dihydrospiro[indene-2,4′-piperidin]-1′-yl)-1,2,4-triazin-6-yl)thio)-3-chloropyridin-2-yl)amino)ethan-1-ol] | 46 nM | 3 nM
